Experimental data published in paper PMC8386742, “Discovery of N-aryl sulphonamide-quinazoline derivatives as anti-gastric cancer agents in vitro and in vivo via activating the Hippo signalling pathway” (Journal of Enzyme Inhibition and Medicinal Chemistry, 2021).

Assays:
Format in all cases: cell-based
HUEVC cells = assay: MTT antiproliferative assay, HUEVC normal cells; conditions: exposure for 48 h, non-cancer cell line
Method: (§1) Furthermore, MGC-803 cells were more sensitive to the compounds than HCT-116, PC-3 cells MCF-7 cells. Moreover, we chose two other common gastric cancer cell lines (HGC-27 and SGC-7901) and another two normal cells GES-1 and HUEVC cells to examine for the inhibitory activity of compound 9i.
(§2) Cell lines used were cultured in humidified incubator in a humidified atmosphere of 5% CO2 and 95% air. The RPMI-1640 medium was supplemented with 10% foetal bovine serum, penicillin (100 U/ml) and streptomycin (0.1 mg/ml).
(§3) Cell lines were seeded into 96-well plates and incubated for 24 h. Then cells were treated with different concentrations of compounds. And after another 48 h, MTT reagent (20 μL per well) was added to each well and then incubated at 37 °C for 4 h. After the suspension was discarded, formazan was then dissolved with DMSO. Absorbencies of formazan solution were measured at 490 nm. The IC50 values of tested compounds were calculated by SPSS version 17.0.

GES-1 cells = assay: MTT antiproliferative assay, GES-1 normal gastric epithelial cells
Excerpt: as §1
Since compound 9i presented high potency against cancer cells and MGC-803 cells was more sensitive to compound 9i, compound 9i, MGC-803, another two gastric cancer cells SGC-7901, HGC-27, and GES-1(normal gastric epithelial cells) were used for further detection. As shown in Figures 3(A,B), compound 9i inhibited three gastric cancer cell lines in the dose and time-dependent manners. The inhibition ratios of compound 9i against three gastric cancer cells were all above 50% after 48 h in the high dosage group. Moreover, MGC-803 and SGC-7901 cell lines were more sensitive and compound 9i inhibited over 65% cell viability with high dose treatment for 48 h.
as §2, §3

SGC-7901 cells = assay: MTT antiproliferative assay, SGC-7901 gastric cancer cells; conditions: Homo sapiens, SGC-7901, exposure for 48 h
Method: as §1, §2, §3

HGC-27 cells = assay: MTT antiproliferative assay, HGC-27 gastric cancer cells
Method: as §1, §2, §3

[1] = tested on: P38, ERK, AKT, mTOR and Wnt pathways; assay: Activity on P38, ERK, AKT, mTOR and Wnt pathways in cells; conditions: 20, 40 and 60 nM, 48 hours
Excerpt: In this work, compound 9i was design and synthesized by SAR study of our reported tertiary amide derivatives compound 1 and compound 2. Therefore, we tested the influence of compound 9i on tubulin polymerization and AKT/mTOR and ERK […]
influence on tubulin polymerization and P38, ERK, AKT, mTOR and Wnt pathways . […]
pathway. Therefore, we here reported N-sulfonamide-quinazoline derivatives as novel anti-gastric cancer agents via activating the Hippo signaling pathway in vitro and in […]
Supporting Figure S1. A. Activity of compound 9i on tubulin polymerization . Tubulin polymerization extracellular, concentrations of Paclitaxel, Colchicine and 9i were 3 μmol/L; Activity of compound 9i on P38, ERK, AKT, mTOR and Wnt pathways, cells were incubated with […]
(1 picture or pasted object on this page, not shown here)

## COc1ccc(S(=O)(=O)N(Cc2nc(C)c3ccccc3n2)c2cc(OC)c(OC)c(OC)c2)cc1 [Compound 9i, 4-Methoxy-N-((4-methylquinazolin-2-yl)methyl)-N-(3,4,5-trimethoxyphenyl) benzene-sulfonamide]
HUEVC cells
  IC50: 26.2 µM
GES-1 cells; Homo sapiens, GES1, MTT, exposure for 48 h, non-cancer cell line
  IC50: 894 nM
GES-1 cells; normal gastric epithelial cells
  cytotoxicity towards GES-1 cells: low cytotoxicity
SGC-7901 cells
  IC50: 376 nM
HGC-27 cells; Homo sapiens, HGC-27, MTT, exposure for 48 h
  IC50: 458 nM
HGC-27 cells; high dosage group, 48 h
  inhibition ratio against HGC-27 cells: above 50%
[1]
  influence on P38, ERK, AKT, mTOR and Wnt pathways: no strong influence
